# Results taken from patent US20230094870A1, “CHEMILU[…] FOR TUBERCULOSIS” (priority 2020, published 2023).
# Non-standard residues stand in square brackets, D forms with d. Residues, ends and D or L forms follow the SMILES beside them. *: point of attachment. X1 = COC1(c2ccc(/C=C/C(=O)O)c(OCc3ccc(N*)cc3)c2Cl)OOC12C1CC3CC(C1)CC2C3; Phe(4-Cl) = N[C@@H](Cc1ccc(Cl)cc1)C(=O)O; Igl = N[C@H](C(=O)O)C1Cc2ccccc2C1
# Experiments:
# Mtb strain mc^26020 = format: cell-based, Mycobacterium tuberculosis; details: Mtb mc^26020 incubated with FLASH for 1 h
# recombinant Hip1 enzyme = molecular target: T1, recombinant Hip1 enzyme (Mycobacterium tuberculosis, UniProt P9WHR3); assay: Hip1 activity measurement with FLASH probe (chemiluminescence); format: biochemical; details: total integrated luminescence after 1 h
# T1 construct: Recombinant Hip1 was purified as previously described (Lentz et al., 2016); made in house
# T1 sequence (P9WHR3 31-520): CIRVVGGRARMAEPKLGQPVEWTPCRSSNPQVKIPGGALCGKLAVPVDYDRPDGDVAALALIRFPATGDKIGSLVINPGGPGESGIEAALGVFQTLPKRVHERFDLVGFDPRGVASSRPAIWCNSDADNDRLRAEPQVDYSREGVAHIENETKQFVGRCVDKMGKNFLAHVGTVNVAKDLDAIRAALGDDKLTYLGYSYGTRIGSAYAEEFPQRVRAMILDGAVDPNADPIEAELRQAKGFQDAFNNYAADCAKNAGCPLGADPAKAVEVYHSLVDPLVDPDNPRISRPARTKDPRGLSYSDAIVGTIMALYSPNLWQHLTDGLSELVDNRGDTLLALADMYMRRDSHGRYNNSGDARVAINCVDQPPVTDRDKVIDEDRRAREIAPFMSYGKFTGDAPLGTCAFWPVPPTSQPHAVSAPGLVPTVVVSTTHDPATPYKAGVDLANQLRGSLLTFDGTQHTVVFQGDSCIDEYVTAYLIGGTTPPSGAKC
# [1] = tested on: nontuberculous mycobacteria (NTM); assay: Detection of Mtb versus nontuberculous mycobacteria cells with FLASH probe; details: IL values for millions or thousands of cells of each species, 1 h with FLASH
# Mtb strain H37Rv = format: cell-based, Mycobacterium tuberculosis; details: Mtb H37Rv incubated with FLASH for 1 h
smiles,measurement,setting,value
COC1(c2ccc(/C=C/C(=O)O)c(OCc3ccc(NC(=O)[C@H](CC(C)C)NC(=O)[C@H](CCCCN)NC(=O)[C@H](Cc4ccc(Cl)cc4)NC(=O)[C@@H](NC(C)=O)C4Cc5ccccc5C4)cc3)c2Cl)OOC12C1CC3CC(C1)CC2C3 (stereo partly shown) [FLASH] (Ac-[Igl][Phe(4-Cl)]KL-X1),"LOD, lowest number of bacterial cells that can be detected by the probe",Mtb strain mc^26020,"≤ 100,000 cells"
same,limit of detection (LOD) of Hip1 enzyme,recombinant Hip1 enzyme,~2 pmol
same,sensitivity to Mtb compared to nontuberculous mycobacteria,[1],more sensitive to Mtb compared to common nontuberculous mycobacteria
same,"LOD, lowest number of bacterial cells that can be detected by the probe",Mtb strain H37Rv,"≤ 100,000 cells"
